Assay results: patent US20230285374A1, “THERAPEUTIC METHODS USING VADADUSTAT” (Akebia Therapeutics, Inc., priority 2019, published 2023)

Tested on: adult patients with NDD-CKD and anemia, not previously treated with an ESA
Experiment: Phase 3 ESA-untreated NDD-CKD (Correction) trial, vadadustat vs darbepoetin alfa
Type: in vivo, human
Conditions: Correction study
Experimental: Two global, Phase 3, randomized, open-label, active-controlled, sponsor-blind clinical trials were conducted to evaluate safety and efficacy of vadadustat (Compound 1) vs the ESA darbepoetin alfa in adult patients with NDD-CKD and anemia. Patients recruited into the ESA-untreated NDD-CKD trial (N=1761) had hemoglobin <10 g/dL and were not previously being treated with an ESA. Patients recruited into the ESA-treated NDD-CKD trial (N=1750) had hemoglobin ranges of 8-11 g/dL (US) or 9-12 g/dL (non-US) and were actively treated with an ESA for anemia associated with CKD. Trial periods in both trials included 1) correction/conversion (weeks 0-23); 2) maintenance (weeks 24-52); 3) long-term treatment (week 53 to end of treatment); and 4) safety follow-up (end-of-treatment to 4 weeks later). The primary safety endpoint was time to first adjudicated major adverse cardiovascular event, defined as all-cause mortality, non-fatal myocardial infarction or non-fatal stroke pooled across both trials. The primary efficacy endpoint in each trial was mean change in hemoglobin from baseline to primary evaluation period (weeks 24-36) comparing vadadustat vs darbepoetin alfa treatment arms. Demographics and baseline characteristics were similar among patients in both trials, and typical for a large proportion of the NDD-CKD population. These trials helped define the safety and efficacy of vadadustat, an oral hypoxia-inducible factor prolyl hydroxylase inhibitor for management of anemia associated with NDD-CKD.
Two randomized, Phase 3, open-label, active-controlled clinical trials were conducted to evaluate the safety and efficacy of oral vadadustat versus injectable darbepoetin alfa: Correction (previously ESA-untreated) and Conversion (previously ESA-treated). Target enrollment for each was approximately 1850 patients recruited at approximately 390 and 480 sites in North America, Latin America, Europe, and the Asia Pacific for the ESA-untreated NDD-CKD trial and the ESA-treated NDD-CKD trial, respectively.
Trial Populations. Each trial recruited adults (>18 years of age) with NDD-CKD (estimated glomerular filtration rate 60 mL/min/1.73 m^2). […] In addition to the hemoglobin entry criteria, all patients were required to have serum ferritin ≥100 ng/mL and transferrin saturation 20% at screening in order to be randomized. In the ESA-untreated NDD-CKD trial, ESA use was permitted during screening, as per standard of care; however, patients were excluded if they received any ESA within 8 weeks of randomization. In the ESA-treated NDD-CKD trial, patients were actively maintained on ESA therapy, with at least one dose received within 6 weeks before or during screening. […]

O=C(O)CNC(=O)c1ncc(-c2cccc(Cl)c2)cc1O [Compound 1, Vadadustat]
mean (SD) Hb level (week 24 to week 36): 10.39 (0.99) g/dL | mean (SD) Hb level (week 40 to week 52): 10.48 (1.05) g/dL | least square mean difference in Hb (vadadustat vs darbepoetin alfa) (weeks 24 to 36, non-inferiority margin −0.75 g/dL): 0.05 g/dL | least square mean difference in Hb (vadadustat vs darbepoetin alfa) (weeks 40 to 52): 0.04 g/dL
